This note sets out measurements from patent publication US12459951B2, “Compounds that interact with RAS superfamily proteins for treatment of cancers, inflammatory diseases, rasopathies, and fibrotic disease” (SHY Therapeutics, LLC, priority 2022, dated 2025).

A value given as a limit tells only on which side of the number the result lay.

Data set [1] in a line: Mouse Liver Microsome Metabolic Stability Assay. The following applies: pH 7.4, Mouse liver microsomes, 37° C., NADPH, read-out: t½. The format is in vitro ADME. The method, then: Biological Example 10: Assessment of Metabolic Stability in Mouse Liver Microsomes
Metabolic Stability Assay: Microsomal incubations were carried out in 96-well plates in 5 aliquots of 30 μL each (one for each time point). Liver microsomal incubation medium comprised of phosphate buffer (100 mM, pH 7.4), MgCl2 (3.3 mM), NADPH (3 mM), glucose-6-phosphate (5.3 mM), glucose-6-phosphate dehydrogenase (0.67 units/ml) with 0.42 mg of liver microsomal protein per mL. In the control reactions the NADPH-cofactor system was substituted with phosphate buffer. Test compounds (2 μM, final solvent concentration 1.6%) were incubated with microsomes at 37° C., shaking at 100 rpm. Each reaction was performed in duplicates. Five time points over 40 minutes were analyzed. The reactions were stopped by adding 5 volumes of methanol containing internal standard to incubation aliquots, followed by protein sedimentation by centrifuging at 5500 rpm for 4 minutes. Supernatants were analyzed using the HPLC system coupled with tandem mass spectrometer.
The elimination constant (kel), half-life (t1/2) and intrinsic clearance (Clint) were determined in plot of […] versus time, using linear regression analysis:
In order to indicate the quality of the linear regression analysis, the R (correlation coefficient) values are provided. In some cases, the last time point is excluded from the calculations to ensure acceptable logarithmic linearity of decay.
Table 9 show metabolic stability data for selected compounds tested in the Mouse Liver Microsome Metabolic Stability assay described above.
On the technique in general: Liver microsomes are vesicles of endoplasmic reticulum, rich in cytochrome P450 enzymes.

For a further data set, the system named is TNF-alpha. As to the kind of experiment: TNF-alpha Quantification Assay (ELISA), LPS-stimulated RAW 264.7. The following applies: Mus musculus, RAW264.7; at 10 μM; read-out: TNFα: % inh. It is filed as cell-based.
A further data set relates to Erk1/2 phosphorylation. As to the kind of experiment: Erk1/2 Phosphorylation Assay (western blot), Panc-1. As to conditions: at 10 μM, * = activation. The format is cell-based, human. The essentials: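 Phospho-Erk1/2 (Thr202/Tyr204) was detected by western blot in lysates of Panc-1 cells (KRas G12D). These had 6 h, 37° C exposure to 10 μM compound or a dilution series for IC50, in 0.3% DMSO. Cells were either starved overnight in 0.5% FBS with a 15-min 1.5 ng/ml EGF pulse, or kept unstimulated in 10% FBS.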
A general note: A western blot detects proteins with antibodies after separation by electrophoresis.

Another data set concerns MAPK p38 phosphorylation. Briefly: MAPK p38 Activation Assay (western blot), Panc-1. The format is cell-based, human. The following applies: at 10 μM, Panc-1 pancreatic cancer cell line; starred symbols = activation. The essentials:
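Panc-1 cells (KRas G12D) were treated with compound for 6 h at 37 °C, at 10 μM or as serial dilutions for IC50, with 0.3% DMSO. Method 1 used overnight serum-starved cells (0.5% FBS) stimulated with 1.5 ng/ml EGF for 15 min; Method 2 used unstimulated cells in 10% FBS. Phospho-p38 (Thr180/Tyr182) was detected by western blot.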

In the case of `Cc1c(-c2ccn(C)n2)cn2nc(-c3nccn3C)nc(Nc3ccc(N(C)C)cn3)c12` [Compound 227, N5,N5-Dimethyl-N2-(5-methyl-2-(1-methyl-1H-imidazol-2-yl)-6-(1-methyl-1H-pyrazol-3-yl)pyrrolo[2,1-f][1,2,4]triazin-4-yl)pyridine-2,5-diamine], in data set [1], the half-life at 2 µM is greater than 10 min. Also, the inhibition at 10 µM with TNF-alpha was in the range of 50 to 74%. Besides, the “% inh of Erk1/2 phosphorylation in Panc-1” value with Erk1/2 phosphorylation was “C* (46-84% activation)”.

Turning to `COc1cc(Nc2nc(-c3nccn3C)nn3cc(-c4ccn(C)n4)c(C)c23)ncc1C` [Compound 235, N-(4-Methoxy-5-methylpyridin-2-yl)-5-methyl-2-(1-methyl-1H-imidazol-2-yl)-6-(1-methyl-1H-pyrazol-3-yl)pyrrolo[2,1-f][1,2,4]triazin-4-amine], in data set [1], the half-life at 2 µM was greater than 10 min. The inhibition at 10 µM in the data set with TNF-alpha was 0%. Further, the “% inh of Erk1/2 phosphorylation in Panc-1” value in the data set on Erk1/2 phosphorylation was “B* (26-49% activation)”.

For the compound `Cc1ccc(Nc2nc(-c3nccn3C)nn3cc(-c4ccn(C)n4)c(C)c23)nc1` [Compound 226, 5-Methyl-2-(1-methyl-1H-imidazol-2-yl)-6-(1-methyl-1H-pyrazol-3-yl)-N-(5-methylpyridin-2-yl)pyrrolo[2,1-f][1,2,4]triazin-4-amine], the half-life at 2 µM in data set [1] was greater than 10 min. In addition, the inhibition at 10 µM in the data set with TNF-alpha was 25 to 49%. Besides, the “% inh of Erk1/2 phosphorylation in Panc-1” value in the data set on Erk1/2 phosphorylation is listed as “A* (1-25% activation)”.

Take `COc1cc(Nc2nc(-c3nccn3C)nn3cc(-c4ccn(C)n4)c(C)c23)ncc1C1CC1` [Compound 238, N-(5-Cyclopropyl-4-methoxypyridin-2-yl)-5-methyl-2-(1-methyl-1H-imidazol-2-yl)-6-(1-methyl-1H-pyrazol-3-yl)pyrrolo[2,1-f][1,2,4]triazin-4-amine]: the half-life at 2 µM in data set [1] was greater than 10 min. The inhibition at 10 µM in the data set on TNF-alpha lay within 50 to 74%. In addition, the “% inh of Erk1/2 phosphorylation in Panc-1” value in the data set with Erk1/2 phosphorylation is “A (1-25% inhibition)”.

`Cc1c(-c2ccn(C)n2)cn2nc(-c3nccn3C)nc(Nc3cc(N4CCOCC4)ccn3)c12` [Compound 222, 5-Methyl-2-(1-methyl-1H-imidazol-2-yl)-6-(1-methyl-1H-pyrazol-3-yl)-N-(4-morpholinopyridin-2-yl)pyrrolo[2,1-f][1,2,4]triazin-4-amine]: in data set [1], the half-life at 2 µM is less than 10 min. The inhibition at 10 µM with TNF-alpha came to 0%. In the data set with Erk1/2 phosphorylation, the “% inh of Erk1/2 phosphorylation in Panc-1” value is listed as “A* (1-25% activation)”.

In the case of `COc1ccnc(Nc2nc(-c3nccn3C)nn3cc(-c4ccn(CCN)n4)c(C)c23)c1` [Compound 187, 6-(1-(2-Aminoethyl)-1H-pyrazol-3-yl)-N-(4-methoxypyridin-2-yl)-5-methyl-2-(1-methyl-1H-imidazol-2-yl)pyrrolo[2,1-f][1,2,4]triazin-4-amine], in the data set on MAPK p38 phosphorylation, the “% inh of MAPK p38 in Panc-1” value is “E* (E* = 1-30% activation)”. For the same compound, in the data set with TNF-alpha, the inhibition at 10 µM was in the range of 1 to 24%. For the same compound, the “% inh of Erk1/2 phosphorylation in Panc-1” value with Erk1/2 phosphorylation is listed as “A (1-25% inhibition)”.

For the compound `CO[C@H]1C[C@@H](Nc2nc(-c3nccn3C)nn3cc(-c4cccnc4)c(-c4ccccc4)c23)C1` [Compound 191, N-((1s,3s)-3-Methoxycyclobutyl)-2-(1-methyl-1H-imidazol-2-yl)-5-phenyl-6-(pyridin-3-yl)pyrrolo[2,1-f][1,2,4]triazin-4-amine], the “% inh of MAPK p38 in Panc-1” value in the data set on MAPK p38 phosphorylation is “E* (E* = 1-30% activation)”. The inhibition at 10 µM with TNF-alpha fell in the range of 1 to 24%. Besides, the “% inh of Erk1/2 phosphorylation in Panc-1” value in the data set on Erk1/2 phosphorylation is “D* (85-100% activation)”.

Turning to `CO[C@H]1C[C@H](Nc2nc(-c3nccn3C)nn3cc(-c4ccc(CN)cc4)c(-c4ccccc4)c23)C1.Cl` [Compound 206, 6-(4-(Aminomethyl)phenyl)-N-((1r,3r)-3-methoxycyclobutyl)-2-(1-methyl-1H-imidazol-2-yl)-5-phenylpyrrolo[2,1-f][1,2,4]triazin-4-amine hydrochloride salt], in the data set with MAPK p38 phosphorylation, the “% inh of MAPK p38 in Panc-1” value was “E (E = 1-30% inhibition)”. The inhibition at 10 µM in the data set on TNF-alpha fell in the range of 1 to 24%. In addition, in the data set with Erk1/2 phosphorylation, the “% inh of Erk1/2 phosphorylation in Panc-1” value was “B (26-49% inhibition)”.

On to `COc1ccc(Nc2nc(-c3nccn3C)nn3cc(-c4ccn(C)n4)c(C)c23)nc1` [Compound 224, N-(5-Methoxypyridin-2-yl)-5-methyl-2-(1-methyl-1H-imidazol-2-yl)-6-(1-methyl-1H-pyrazol-3-yl)pyrrolo[2,1-f][1,2,4]triazin-4-amine], for which the half-life at 2 µM in data set [1] is greater than 10 min. In addition, the inhibition at 10 µM in the data set with TNF-alpha lay within 1 to 24%. Besides, the “% inh of Erk1/2 phosphorylation in Panc-1” value in the data set on Erk1/2 phosphorylation was “C* (46-84% activation)”.

Take `COCCNc1nc(-c2nccn2C)nn2cc(-c3cccnc3)c(-c3ccccc3)c12` [Compound 195, N-(2-Methoxyethyl)-2-(1-methyl-1H-imidazol-2-yl)-5-phenyl-6-(pyridin-3-yl)pyrrolo[2,1-f][1,2,4]triazin-4-amine]: the “% inh of MAPK p38 in Panc-1” value in the data set on MAPK p38 phosphorylation is on record as “E* (E* = 1-30% activation)”. The inhibition at 10 µM with TNF-alpha is 0%. The “% inh of Erk1/2 phosphorylation in Panc-1” value in the data set on Erk1/2 phosphorylation is “B* (26-49% activation)”.

In the case of `COCCCS(=O)(=O)Nc1nc(-c2nccn2C)nn2cc(-c3ccccc3)c(-c3ccccc3)c12` [Compound 213, 3-Methoxy-N-(2-(1-methyl-1H-imidazol-2-yl)-5,6-diphenylpyrrolo[2,1-f][1,2,4]triazin-4-yl)propane-1-sulfonamide], in the data set with MAPK p38 phosphorylation, the “% inh of MAPK p38 in Panc-1” value was “F (F = 31-74% inhibition)”. For the same compound, the inhibition at 10 µM in the data set on TNF-alpha is 0%. The “% inh of Erk1/2 phosphorylation in Panc-1” value in the data set on Erk1/2 phosphorylation is “D* (85-100% activation)”.
